Series [1] deals with T1, human androgen receptor (hAR) (Homo sapiens, UniProt P10275, DEL79-80/DUP470-473/R9G).
T1 construct: made in house; host or cells: Sf9 insect cells (baculovirus)
T1 sequence (P10275 with tags, fused parts or gaps R9G/DEL79-80/DUP470-473): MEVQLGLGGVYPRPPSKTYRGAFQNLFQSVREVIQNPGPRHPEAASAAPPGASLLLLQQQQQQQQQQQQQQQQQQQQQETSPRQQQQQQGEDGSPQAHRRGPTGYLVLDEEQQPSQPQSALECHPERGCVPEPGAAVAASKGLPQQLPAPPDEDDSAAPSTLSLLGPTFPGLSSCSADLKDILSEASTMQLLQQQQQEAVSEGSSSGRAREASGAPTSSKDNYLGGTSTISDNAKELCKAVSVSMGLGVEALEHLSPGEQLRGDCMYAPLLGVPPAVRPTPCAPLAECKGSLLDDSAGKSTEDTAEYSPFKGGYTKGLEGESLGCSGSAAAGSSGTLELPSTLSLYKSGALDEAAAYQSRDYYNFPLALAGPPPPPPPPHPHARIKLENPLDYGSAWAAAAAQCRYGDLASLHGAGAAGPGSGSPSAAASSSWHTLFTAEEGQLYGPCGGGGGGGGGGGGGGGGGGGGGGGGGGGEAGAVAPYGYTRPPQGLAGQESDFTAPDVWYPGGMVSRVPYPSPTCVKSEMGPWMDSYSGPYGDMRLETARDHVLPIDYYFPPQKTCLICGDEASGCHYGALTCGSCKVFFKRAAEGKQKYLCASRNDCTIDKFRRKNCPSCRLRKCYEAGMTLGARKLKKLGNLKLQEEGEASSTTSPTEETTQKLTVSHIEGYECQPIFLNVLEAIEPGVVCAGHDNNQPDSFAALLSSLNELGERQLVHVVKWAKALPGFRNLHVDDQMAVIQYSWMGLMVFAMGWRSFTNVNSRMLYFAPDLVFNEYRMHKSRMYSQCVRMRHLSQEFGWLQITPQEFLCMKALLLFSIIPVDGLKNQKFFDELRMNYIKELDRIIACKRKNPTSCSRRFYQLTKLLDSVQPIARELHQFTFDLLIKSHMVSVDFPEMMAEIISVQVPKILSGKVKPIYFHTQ
The series is described as follows: Radioligand binding, [3H]mibolerone, hAR expressed in Sf9. To be noted: hAR expressed in Sf9; [3H]mibolerone 0.3 nM; read-out: Mean Ki ± SEM hAR. As for the experimental part:
(§1) Full-length human mineralocorticoid receptor (hMR) to be used in radioligand binding was isolated from a human kidney cDNA library (Clontech, Palo Alto, CA). […] The hMR, hPR, and hAR cDNAs were subcloned in the eukaryotic expression vector pcDNA3. Methods for the expression of functionally active hMR, hAR and hPR utilizing the baculovirus expression system were described previously, [31].
(§2) Affinity of ligands to the soluble receptor was determined using vacuum filtration methods, preparing soluble receptors in 96-well Falcon polystyrene plates (BD Biosciences, Bedford, MA) in a total volume of 250 μl. […] Binding studies for ligands for hPR and hAR were determined using [1,2,6,7-3H(N)] […] Specific binding of 3H-progesterone for hPR and 3H-mibolerone for hAR was determined in the presence and absence of 1 μM mifepristone. Inhibition constants (Ki), were determined either from the Cheng-Prusoff equation[32], or directly using non-linear regression curve fitting to a three-parameter one-site competitive equation. […] Protein was measured using colorimetric detection and quantification of bicinchoninic acid (BCA Protein Assay, Pierce, Rockford, IL). […] Concentration response curves were analyzed statistically using a four-parameter logistic equation (Hill equation for sigmoid curves). […]

Series [2] has as its system human androgen receptor (hAR). The series is described as above. The conditions noted are these: selectivity. The protocol: as §1, §2
Series [3] concerns the target T2, human progesterone receptor (hPR) (Homo sapiens, UniProt P06401).
T2 sequence (P06401 679-933 limits assumed): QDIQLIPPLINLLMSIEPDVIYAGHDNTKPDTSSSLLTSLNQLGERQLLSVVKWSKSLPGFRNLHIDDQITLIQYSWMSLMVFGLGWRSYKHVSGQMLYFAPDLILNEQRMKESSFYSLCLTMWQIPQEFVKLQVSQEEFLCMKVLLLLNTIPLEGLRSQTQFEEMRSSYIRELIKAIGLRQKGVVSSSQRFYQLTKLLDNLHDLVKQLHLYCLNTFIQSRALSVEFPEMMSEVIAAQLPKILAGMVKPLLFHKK
The series is described as follows: Radioligand binding, [3H]progesterone, hPR expressed in Sf9. As for the experimental part:
as §1, §2

The nature of series [4]: Permeability (data not shown). In kind it is in vitro ADME.
Series [5] can be described thus: Pharmacokinetics (data not shown).

Molecules are shown by their SMILES.

As for `O=c1[nH]c2ccc(/C=C3\c4ccc(F)cc4COc4cc(F)ccc43)cc2[nH]1` [Ly], the Ki in series [1] came to 323 ± 101 nM; in series [3] (hPR expressed in Sf9, [3H]progesterone 0.5 nM, read-out: Mean Ki ± SEM hPR), 92 ± 19 nM. In addition, the “Ratio of Ki's hAR: hMR” value in series [2] is on record as 202. In series [3] (selectivity), the “Ratio of Ki's hPR: hMR” value amounted to 58. Also, in series [4], the Permeability result was “good permeability”. Further, the Pharmacokinetics properties result in series [5] is “good pharmacokinetics properties”.

Broadly, the Ki is a measure of affinity in units of concentration, obtained from inhibition or displacement.

Values taken from article PMC5554220, “A Novel Aldosterone Antagonist Limits Renal Injury in 5/6 Nephrectomy” (Scientific Reports, 2017).
